In patent US20240208912A1 (Mirati Therapeutics, Inc., priority 2021, published 2024):
Counter-ions that a name gives are not always drawn. Like-named read-outs stand apart in the source and are kept apart here.

Legend:
[1] = tested on: HCT116 homozygous MTAP knockout cells; experiment: Proliferation assay (CellTiter-Glo, 10 days) in HCT116 homozygous MTAP knockout cells; type: cell-based; conditions: CellTiter-Glo after 10 days of treatment, read-out: Proliferation IC50 (nM) HCT116 MTAP_KO
Summary of the method: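 CellTiter-Glo viability read on day 11 gives a 10-day IC50. Dosing began one day after seeding, with a 1:10 split into fresh drug-containing medium on day 6. Cells are HCT116 lacking both MTAP alleles via CRISPR/Cas9, run alongside the parental line.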

[2] = tested on: PRMT5-dependent Symmetric Di-methyl Arginine signal in HCT116 homozygous MTAP Knockout cells; experiment: SYM11 In-Cell Western in HCT116 homozygous MTAP knockout cells; type: cell-based
Experimental: HCT116 cells were genetically engineered to knock out the function of both MTAP alleles using a CRISPR/Cas9 system and an sgRNA targeting the MTAP gene. Following Cas9/MTAP sgRNA transduction, clones were screened to confirm that each allele of the MTAP gene had been inactivated (i.e., homozygous MTAP knock out) creating an MTAP-deficient cell.
Control samples were analyzed in parallel.
Briefly, on Day 0, 2,000 HCT116 parental or HCT116 homozygous MTAP knockout cells were seeded in 96 well plates in McCoy's 5A supplemented with 10% fetal bovine serum and pen/strep and the cells were incubated overnight at 37° C. plus 5% CO2. The following day, cells were treated with DMSO vehicle control or a dose response of PRMT5 inhibitors, and incubated at 37° C. plus 5% CO^2 for four days.
After 4 days of treatment, the cells were fixed by adding 50 μl of 4% paraformaldehyde solution to each well and the cells were incubated for 20 min at room temperature. The paraformaldehyde solution was removed, 150 μl of ice-cold methanol was added and the plate was placed −20° C. for 10 minutes. The methanol was removed, 150 μl of Odyssey Blocking buffer+0.05% Tween20 was added and the plate was incubated at room temperature with shaking for one hour.
The primary SYM11 antibody solution was removed by aspiration and the wells were washed three consecutive times with phosphate buffered saline containing 0.1% Tween-20 (PBST).
The secondary antibody solution was removed by aspiration and the wells were washed three consecutive times with PBST.
The SYM11 signal and the DRAQ5 signal were quantified using a Li-Cor Odyssey machine reading at […], respectively. The SYM11/DRAQ5 ratio was used to calculate the inhibition of Symmetric Dimethyl Arginine as percent of DMSO control.

PRMT5/MEP50 complex = target: T1, PRMT5/MEP50 complex (Homo sapiens, UniProt O14744); experiment: PRMT5:MEP50 HotSpot Assay (full-length histone H2A substrate, plus and minus MTA); type: biochemical; conditions: IC50 + 2 μM MTA, in the presence of 2 μM MTA
T1 construct: purchased Reaction Biology Corporation
T1 sequence (O14744 2-637 limits assumed): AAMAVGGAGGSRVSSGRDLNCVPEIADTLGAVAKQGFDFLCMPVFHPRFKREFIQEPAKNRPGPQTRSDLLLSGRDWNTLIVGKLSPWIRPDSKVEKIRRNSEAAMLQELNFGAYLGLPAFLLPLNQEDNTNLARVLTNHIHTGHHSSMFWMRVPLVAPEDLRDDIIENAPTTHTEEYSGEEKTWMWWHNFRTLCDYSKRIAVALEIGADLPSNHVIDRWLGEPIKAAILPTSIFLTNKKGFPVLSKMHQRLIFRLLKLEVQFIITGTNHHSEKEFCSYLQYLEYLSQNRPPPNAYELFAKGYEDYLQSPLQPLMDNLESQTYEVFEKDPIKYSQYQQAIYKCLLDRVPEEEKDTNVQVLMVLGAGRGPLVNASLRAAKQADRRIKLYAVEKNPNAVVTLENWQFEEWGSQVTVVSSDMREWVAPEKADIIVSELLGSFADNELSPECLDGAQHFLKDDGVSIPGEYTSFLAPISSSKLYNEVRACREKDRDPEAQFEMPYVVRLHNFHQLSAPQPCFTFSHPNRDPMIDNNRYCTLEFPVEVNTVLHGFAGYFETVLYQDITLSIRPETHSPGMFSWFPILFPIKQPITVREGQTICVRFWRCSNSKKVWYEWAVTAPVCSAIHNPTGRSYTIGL
T1 sequence (Q9BQA1 2-342 partner limits assumed): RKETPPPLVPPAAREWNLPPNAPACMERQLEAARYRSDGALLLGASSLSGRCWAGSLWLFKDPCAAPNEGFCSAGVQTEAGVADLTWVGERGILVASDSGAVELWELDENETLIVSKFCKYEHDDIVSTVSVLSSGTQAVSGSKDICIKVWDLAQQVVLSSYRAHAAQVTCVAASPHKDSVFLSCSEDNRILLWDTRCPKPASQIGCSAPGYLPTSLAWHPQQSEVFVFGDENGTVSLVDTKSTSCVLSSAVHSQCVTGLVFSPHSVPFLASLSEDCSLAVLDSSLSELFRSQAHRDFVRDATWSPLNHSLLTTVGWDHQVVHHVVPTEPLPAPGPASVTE
Summary of the method: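 Tritiated product on full-length recombinant H2A was counted by scintillation after the stopped reaction was captured on filter paper. Substrate is histone H2A; conditions include plus and minus MTA.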

[3] = 4 days of treatment, SYM11/DRAQ5 ratio as percent of DMSO control, read-out: In-cell-Western (SYM11) IC50 (nM) HCT116 MTAP_KO
[4] = Homo sapiens, HCT-116, 96 h, 4 days of treatment, SYM11/DRAQ5 ratio as percent of DMSO control, read-out: In-cell-Western (SYM11) IC50 (nM) HCT116 MTAP_KO
[5] = read-out: In-cell-Western (SYM11) IC50 (nM) HCT116 MTAP_KO, 4 days of treatment, SYM11/DRAQ5 ratio as percent of DMSO control

Row | Structure (SMILES) | IC50 (PRMT5/MEP50 complex) [nM] | IC50 ([1]; Homo sapiens, HCT-116, 240 h) [nM] | other results
1 | Cc1cc(-c2cnn(C)c2-c2c(F)c(Cl)c3ccccc3c2C#N)cc2c(CN)n[nH]c(=O)c12 (atropisomer, axis not shown; (M)) [Example 16-18, (M)-2-[4-[4-(aminomethyl)-8-methyl-1-oxo-2H-phthalazin-6-yl]-2-methyl-pyrazol-3-yl]-4-chloro-3-fluoro-naphthalene-1-carbonitrile] | – | – | IC50 [1]: 19 nM; IC50 [2, 3]: 13 nM
2 | Cc1c(F)c(-c2c(-c3cc(Cl)c4c(=O)[nH]nc(CN)c4c3)cnn2C)c(C#N)c2ncc(Cl)cc12 (atropisomer, axis not shown; (M)) [Example 16-98, (M)-7-(4-(4-(aminomethyl)-8-chloro-1-oxo-1,2-dihydrophthalazin-6-yl)-1-methyl-1H-pyrazol-5-yl)-3-chloro-6-fluoro-5-methylquinoline-8-carbonitrile] | 552 | – | IC50 [2, 4]: 25 nM
3 | N#Cc1c(OC2CC2)cc(Cl)c(F)c1-c1c(-c2ccc3c(=O)[nH]nc(CN)c3c2)cnn1C(F)(F)F (atropisomer, axis not shown; (M)) [Example 16-120, (M)-2-(4-(4-(aminomethyl)-1-oxo-1,2-dihydrophthalazin-6-yl)-1-(trifluoromethyl)-1H-pyrazol-5-yl)-4-chloro-6-cyclopropoxy-3-fluorobenzonitrile] | 257 | – | IC50 [2, 3]: 79 nM
4 | N#Cc1c(OC2CC2)cc(Cl)c(F)c1-c1c(-c2ccc3c(=O)[nH]nc(CN)c3c2)cnn1C(F)(F)F (atropisomer, axis not shown; (P)) [Example 16-119, (P)-2-(4-(4-(aminomethyl)-1-oxo-1,2-dihydrophthalazin-6-yl)-1-(trifluoromethyl)-1H-pyrazol-5-yl)-4-chloro-6-cyclopropoxy-3-fluorobenzonitrile] | 489 | – | IC50 [2, 3]: 1000 nM
5 | Cc1c(F)c(-c2c(-c3cc(C)c4c(=O)[nH]nc(CN)c4c3)cnn2C)c(C#N)c2ncc(Cl)cc12 (single isomer, unassigned) [Example 16-96, (M)-7-(4-(4-(aminomethyl)-8-methyl-1-oxo-1,2-dihydrophthalazin-6-yl)-1-methyl-1H-pyrazol-5-yl)-3-chloro-6-fluoro-5-methylquinoline-8-carbonitrile] | 5940 | – | IC50 [2, 4]: 22 nM
6 | Cc1ccc(-c2c(-c3ccc4c(=O)[nH]nc(CN)c4c3)cnn2C)c(C#N)c1 [Example 4-106, 2-(4-(4-(aminomethyl)-1-oxo-1,2-dihydrophthalazin-6-yl)-1-methyl-1H-pyrazol-5-yl)-5-methylbenzonitrile] | – | – | IC50 [2, 4]: 26 nM
7 | Cn1ncc(-c2ccc3c(=O)[nH]nc(CN)c3c2)c1-c1c(F)cc2ccccc2c1C#N [Example 4-203, 2-(4-(4-(aminomethyl)-1-oxo-1,2-dibydrophthalazin-6-yl)-1-methyl-1H-pyrazol-5-yl)-3-fluoro-1-naphthonitrile] | – | – | IC50 [2, 3]: 2 nM
8 | Cn1ncc(-c2ccc3c(=O)[nH]nc(CN)c3c2)c1-c1cc2ccccn2c1C#N [Example 4-256, 2-[4-[4-(aminomethyl)-1-oxo-2H-phthalazin-6-yl]-2-methyl-pyrazol-3-yl]indolizine-3-carbonitrile] | – | – | IC50 [2, 4]: 1000 nM
9 | Cn1ncc(-c2ccc3c(=O)[nH]nc(C4CCN4)c3c2)c1-c1sc2ccccc2c1C#N (stereo not drawn) [Example 9-11, 2-(4-(4-(azetidin-2-yl)-1-oxo-1,2-dihydrophthalazin-6-yl)-1-methyl-1H-pyrazol-5-yl)benzo[b]thiophene-3-carbonitrile] | 1440 | 2370 | –
10 | Cn1ncc(-c2ccc3c(=O)[nH]nc(C4CNC4)c3c2)c1-c1sc2ccccc2c1C#N [Example 9-12, 2-[4-[4-(azetidin-3-yl)-1-oxo-2H-phthalazin-6-yl]-2-methyl-pyrazol-3-yl]benzothiophene-3-carbonitrile] | 4250 | 10000 | –
11 | CCOc1cc(-c2cnn(C)c2-c2sc3ccccc3c2C#N)cc2c(CN)n[nH]c(=O)c12 [Example 10-24, 2-(4-(4-(aminomethyl)-8-ethoxy-1-oxo-1,2-dihydrophthalazin-6-yl)-1-methyl-1H-pyrazol-5-yl)benzo[b]thiophene-3-carbonitrile] | 76 | 166 | –
12 | Cc1cnc2sc(-c3c(-c4ccc5c(=O)[nH]nc(CN)c5c4)cnn3C)c(C#N)c2c1 [Example 12-19, 2-[4-[4-(aminomethyl)-1-oxo-2H-phthalazin-6-yl]-2-methyl-pyrazol-3-yl]-5-methyl-thieno[2,3-b]pyridine-3-carbonitrile hydrochloride] | 212 | 136 | –
13 | COCc1cccc2c(C#N)c(-c3c(-c4ccc5c(=O)[nH]nc(CN)c5c4)cnn3C)sc12 [Example 12-20, 2-[4-[4-(aminomethyl)-1-oxo-2H-phthalazin-6-yl]-2-methyl-pyrazol-3-yl]-7-(methoxymethyl) benzothiophene-3-carbonitrile hydrochloride] | 183 | 269 | –
14 | Cn1ncc(-c2ccc3c(=O)[nH]nc(CN)c3c2)c1-c1sc2c(C3CCCO3)cccc2c1C#N (stereo not drawn) [Example 12-21, 2-[4-[4-(aminomethyl)-1-oxo-2H-phthalazin-6-yl]-2-methyl-pyrazol-3-yl]-7-THF-2-yl-benzothiophene-3-carbonitrile hydrochloride] | 128 | 126 | –
15 | Cn1ncc(-c2cc(O)c3c(=O)[nH]nc(CN)c3c2)c1-c1sc2ccccc2c1C#N [Example 15-6, 2-(4-(4-(aminomethyl)-8-hydroxy-1-oxo-1,2-dihydrophthalazin-6-yl)-1-methyl-1H-pyrazol-5-yl)benzo[b]thiophene-3-carbonitrile] | 235 | 138 | –
16 | Cn1ncc(-c2ccc3c(=O)[nH]nc(CN)c3c2)c1-c1c(F)c(Cl)cc(OC2CC2)c1C#N [Example 16-7, 2-(4-(4-(aminomethyl)-1-oxo-1,2-dihydrophthalazin-6-yl)-1-methyl-1H-pyrazol-5-yl)-4-chloro-6-cyclopropoxy-3-fluorobenzonitrile] | – | – | IC50 [2, 5]: 1000 nM
17 | Cn1ncc(-c2ccc3c(=O)[nH]nc(CN)c3c2)c1-c1c(F)c(Cl)cc(OC2CC2)c1C#N [Example 16-8, 2-(4-(4-(aminomethyl)-1-oxo-1,2-dihydrophthalazin-6-yl)-1-methyl-1H-pyrazol-5-yl)-4-chloro-6-cyclopropoxy-3-fluorobenzonitrile] | – | – | IC50 [2, 5]: 0.8 nM
18 | Cn1ncc(-c2ccc3c(=O)[nH]c4c(c3c2)CCNC4)c1-c1sc2ccccc2c1C#N [Example 18-1, 2-(1-methyl-4-(6-oxo-1,2,3,4,5,6-hexahydrobenzo[c][1,7]naphthyridin-9-yl)-1H-pyrazol-5-yl)benzo[b]thiophene-3-carbonitrile] | > 10000 | 4140 | –
19 | CCn1ncc(-c2ccc3c(=O)[nH]nc(CN)c3c2)c1-c1sc2ccccc2c1C#N [Example 19-1, 2-[4-[4-(aminomethyl)-1-oxo-2H-phthalazin-6-yl]-2-ethyl-pyrazol-3-yl]benzothiophene-3-carbonitrile] | 146 | 587 | –
20 | CC(C)n1ncc(-c2ccc3c(=O)[nH]nc(CN)c3c2)c1-c1sc2ccccc2c1C#N [Example 19-2, 2-(4-(4-(aminomethyl)-1-oxo-1,2-dihydrophthalazin-6-yl)-1-isopropyl-1H-pyrazol-5-yl)benzo[b]thiophene-3-carbonitrile] | 1650 | 4220 | –
21 | N#Cc1c(-c2c(-c3ccc4c(=O)[nH]nc(CN)c4c3)cnn2C(F)F)sc2ccccc12 [Example 19-3, 2-(4-(4-(aminomethyl)-1-oxo-1,2-dihydrophthalazin-6-yl)-1-(difluoromethyl)-1H-pyrazol-5-yl)benzo[b]thiophene-3-carbonitrile] | 308 | 149 | –
22 | N#Cc1c(-c2c(-c3ccc4c(=O)[nH]nc(CN)c4c3)cnn2C(F)(F)F)sc2ccccc12 [Example 19-4, 2-(4-(4-(aminomethyl)-1-oxo-1,2-dihydrophthalazin-6-yl)-1-(trifluoromethyl)-1H-pyrazol-5-yl)benzo[b]thiophene-3-carbonitrile] | 647 | 1030 | –
